Measurements as given in ChEMBL document CHEMBL1147197, “Studies on logP, retention time and QSAR of 2-substituted phenylnitronyl nitroxides as free radical scavengers” (Eur J Med Chem, 2007).

Columns and labels:
[1] = Retention time, log K of the compound; type: ADME
PC-12 [2] = test: Nitric oxide radical scavenging activity in PC12 cells by survival assay; type: functional, cell-based, Homo sapiens; details: Rattus norvegicus
[3] = Partition coefficient, log P of the compound; type: physicochemical; details: octanol/water
PC-12 [4] = test: Hydroxyl radical scavenging activity in PC12 cell by survival assay; type: functional, cell-based, Homo sapiens; details: Rattus norvegicus
PC-12 [5] = test: Hydrogen peroxide radical scavenging activity in PC12 cell by survival assay; type: functional, cell-based, Homo sapiens; details: Rattus norvegicus

SMILES	log K [1]	EC50 (PC-12 [2]; read-out: EC50)	EC50 (PC-12 [2]; read-out: Log EC50 (converted))	logP [3]	EC50 (PC-12 [4]; read-out: EC50)	EC50 (PC-12 [4]; read-out: Log EC50 (converted))	EC50 (PC-12 [5]; read-out: EC50)	EC50 (PC-12 [5]; read-out: Log EC50 (converted))
CN(C)c1ccc(C2=[N+]([O-])C(C)(C)C(C)(C)N2[O])cc1	1.328	9.12 µM	9.12 µM	2.02	31.1 µM	30.9 µM	29 µM	28.8 µM
CC1(C)N([O])C(c2ccc(Cl)cc2)=[N+]([O-])C1(C)C	1.6	63.1 µM	63.1 µM	2.33	74.6 µM	74.1 µM	58.9 µM	58.9 µM
CC1(C)N([O])C(c2ccc(Cl)cc2Cl)=[N+]([O-])C1(C)C	1.347	42.8 µM	42.7 µM	1.93	78.1 µM	77.6 µM	65 µM	64.6 µM
CC1(C)N([O])C(c2ccccc2[N+](=O)[O-])=[N+]([O-])C1(C)C	0.598	47.9 µM	47.9 µM	0.909	74.6 µM	74.1 µM	60.7 µM	60.3 µM
CC1(C)N([O])C(c2ccc(OCC(=O)O)cc2)=[N+]([O-])C1(C)C	-0.372	91.2 µM	91.2 µM	-0.518	101 µM	100 µM	74.6 µM	74.1 µM
CC1(C)N([O])C(c2cccnc2)=[N+]([O-])C1(C)C	0.337	–	–	0.512	–	–	–	–
Cc1ccc(C2=[N+]([O-])C(C)(C)C(C)(C)N2[O])cc1	1.309	33.1 µM	33.1 µM	1.9	65 µM	64.6 µM	38.3 µM	38 µM
COc1ccc(C2=[N+]([O-])C(C)(C)C(C)(C)N2[O])cc1	1.101	30.9 µM	30.9 µM	1.62	59.3 µM	58.9 µM	42.9 µM	42.7 µM
COc1ccc(C2=[N+]([O-])C(C)(C)C(C)(C)N2[O])c(OC)c1	0.62	9.33 µM	9.33 µM	0.77	27.7 µM	27.5 µM	25.3 µM	25.1 µM
CC1(C)N([O])C(c2ccccc2F)=[N+]([O-])C1(C)C	0.577	44.7 µM	44.7 µM	0.822	85.7 µM	85.1 µM	76.4 µM	75.9 µM
COc1ccc(C2=[N+]([O-])C(C)(C)C(C)(C)N2[O])cc1O	0.534	27.5 µM	27.5 µM	0.918	54.1 µM	53.7 µM	40.1 µM	39.8 µM
CC1(C)N([O])C(c2ccccc2O)=[N+]([O-])C1(C)C	0.729	44.7 µM	44.7 µM	1.17	55.3 µM	55 µM	52.8 µM	52.5 µM
CC1(C)N([O])C(c2ccc(O)cc2)=[N+]([O-])C1(C)C	0.483	39.8 µM	39.8 µM	0.619	56 µM	56.2 µM	48.2 µM	47.9 µM
COc1cc(C2=[N+]([O-])C(C)(C)C(C)(C)N2[O])ccc1O	0.558	25.7 µM	25.7 µM	1.14	42.9 µM	42.7 µM	32.6 µM	32.4 µM
CC1(C)N([O])C(c2ccc([N+](=O)[O-])cc2)=[N+]([O-])C1(C)C	1.245	115 µM	115 µM	1.68	167 µM	166 µM	108 µM	107 µM
COc1ccc(C2=[N+]([O-])C(C)(C)C(C)(C)N2[O])cc1OC	0.905	8.32 µM	8.32 µM	1.15	29.7 µM	29.5 µM	30.4 µM	30.2 µM
CC1(C)N([O])C(c2ccc3c(c2)OCO3)=[N+]([O-])C1(C)C	1.039	19.5 µM	19.5 µM	1.51	47.1 µM	46.8 µM	29.7 µM	29.5 µM
CC1(C)N([O])C(c2ccc(Br)cc2)=[N+]([O-])C1(C)C	1.713	46.8 µM	46.8 µM	2.46	60.7 µM	60.3 µM	55.3 µM	55 µM
CC1(C)N([O])C(c2cccc([N+](=O)[O-])c2)=[N+]([O-])C1(C)C	1.157	87.1 µM	87.1 µM	1.64	63.5 µM	63.1 µM	62.1 µM	61.7 µM
CC1(C)N([O])C(c2cccc(O)c2)=[N+]([O-])C1(C)C	0.546	61.7 µM	61.7 µM	1.14	69.6 µM	69.2 µM	57.9 µM	57.5 µM
CC1(C)N([O])C(c2ccco2)=[N+]([O-])C1(C)C	0.405	–	–	0.615	–	–	–	–
CC1(C)N([O])C(c2ccccc2)=[N+]([O-])C1(C)C	0.918	67.6 µM	67.6 µM	1.36	66.5 µM	66.1 µM	51.6 µM	51.3 µM
